Key:
[1] = In vitro skin deposition of FL-HA (120 kDa) in Franz diffusion cells, fluorimetry; type: in vitro ADME, porcine
Text: The effect of electroporation parameters on skin integrity and transport of hyaluronic acid (at 1% by weight in water) 120 kDa (HA) labeled with fluorescein into the permeabilzed skin was investigated in vitro using electroporation vs. its passive diffusion.
ii) porating mode (100-250 V, shorter pulse lengths and low number of pulses). Franz-diffusion cells were used to evaluate the in vitro delivery.
Porcine ear skin was used for the in vitro studies. It is accepted as a good model for the human skin barrier. Hairs were excised from the skin surface using clippers. The skin was “sliced” so as to obtain samples with an average thickness of 1.5 mm for all samples. Skin was frozen (−20° C.) or stored at 4° C. until use.
The FL-HA was quantified using by fluorimetry. The measurements were performed using a microplate reader. The excitation and emission wavelengths were 494 and 514 nm. The gain was adjusted to 80 in order to obtain better sensitivity of the samples. All samples were put in polystyrene 96-well plates and protected from the light until analysis. Furthermore, a calibration curve was included in every plate.
The aim of the experiments was to quantify penetration of FL-HA (120 kDa) into intact, electroporated porcine ear skin with and without iontophoresis) as a function of duration using the optimal treatment conditions identified in the previous part of the study. Electroporation treatment was performed either as (i) pre-treatment, where electroporation was performed before formulation application, or as (ii) co-treatment, where the elcetroporation treatment was performed simultaneou.sly in the presence of the formulation. All conditions were tested for 10 and 20 min.
3. Condition 9 (Voltage 250 V, Pulse length 15 ms, Pulse interval 50 ms and 9 Pulses), pre-treatment with electroporation
4. Condition 9 (Voltage 250 V, Pulse length 15 ms, Pulse interval 50 ms and 9 Pulses), simultaneous treatment with electroporation and formulation
7. Control: Application of an aqueous solution of FL-HA (120 kDa) formula on (1% w/w) to “untreated” skin. […]

[2] = Skin images (confocal microscopy) for skin damage after the electrical treatment; parameters: species or system porcine; settings: for skin damage in skin images: electroporation condition 9 plus iontophoresis
Description: The combination of such parameters with iontophoresis at 0.2 mA/cm^2 for 20 min has also been corroborated (x 12 vs. passive diffusion).
9. Take photos to make a visual record of skin condition.
The skin images obtained provide more information about the possible skin damage produced by the electroporation treatment.

skin deposition, electroporation plus iontophoresis (CT+I) compared with electroporation alone (CT) ([1]; condition 9, iontophoresis 0.2 mA/cm^2 for 20 min, p<0.05, ANOVA, Student Newman Keuls test): statistically superior
skin deposition, electroporation plus iontophoresis (CT+I) compared with electroporation alone (CT) ([1]; condition 9, iontophoresis 0.2 mA/cm^2 up to 10 min): not increasing the deposition
increase in skin deposition vs. passive diffusion ([1]; electroporation combined with iontophoresis at 0.2 mA/cm^2 for 20 min): 12 x
Substance: hyaluronic acid [HA 120 kDa]
visual damage to the membrane (skin) ([2]; electroporation alone, 250 V, pulse length 15 ms, pulse interval 50 ms, <10 pulses): no visual damage
skin damage in skin images [2]: lack of significant damage to the skin
skin damage in skin images ([2]; listed as 120 kDa FL-HA formulation): no damage was observed
